# Experimental data as given in patent US20240398828A1, “HETERO-ATOM CONTAINING COMPOUNDS AND USES THEREOF” (Kumquat Biosciences Inc., priority 2021, published 2024).
# Experiments:
# [1] = target: T1, PTPN2 (i.e., TC-PTP) (Homo sapiens, UniProt P17706); experiment: Phosphatase activity assay (DiFMUP substrate), PTPN2; assay type: biochemical; settings: compounds binned ≤1 uM or >1 uM
# T1 sequence (P17706 1-415): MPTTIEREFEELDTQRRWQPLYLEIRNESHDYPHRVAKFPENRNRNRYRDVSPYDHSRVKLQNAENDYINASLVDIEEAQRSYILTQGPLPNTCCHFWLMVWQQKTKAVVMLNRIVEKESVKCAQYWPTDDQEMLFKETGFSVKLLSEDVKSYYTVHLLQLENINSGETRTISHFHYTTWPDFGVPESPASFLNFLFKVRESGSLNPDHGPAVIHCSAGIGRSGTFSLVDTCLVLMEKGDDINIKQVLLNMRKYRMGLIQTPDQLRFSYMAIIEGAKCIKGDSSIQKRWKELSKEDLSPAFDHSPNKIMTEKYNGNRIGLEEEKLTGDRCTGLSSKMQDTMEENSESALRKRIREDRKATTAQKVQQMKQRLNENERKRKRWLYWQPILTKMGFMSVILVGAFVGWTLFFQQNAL
# Method in brief: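 Read-out is continuous fluorescence of DiFMU (360 nm excitation, 450 nm emission) over about 15-30 minutes, with DiFMUP substrate at the enzyme's independently determined Km (PTPN2 approx. 45 μM final). Buffer: 50 mM HEPES pH 7.5, 150 mM NaCl, 0.5 mM EDTA, 1 mM DTT, 0.001% Tween-20, room temperature; initial rates versus 10-point dilution fitted for IC50, at least duplicate.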
# [2] = target: T2, PTPN1 (i.e., PTP1B) (Homo sapiens, UniProt P18031); experiment: Phosphatase activity assay (DiFMUP substrate), PTP1B; assay type: biochemical; settings: compounds binned ≤1 uM or >1 uM
# T2 sequence (P18031 1-435): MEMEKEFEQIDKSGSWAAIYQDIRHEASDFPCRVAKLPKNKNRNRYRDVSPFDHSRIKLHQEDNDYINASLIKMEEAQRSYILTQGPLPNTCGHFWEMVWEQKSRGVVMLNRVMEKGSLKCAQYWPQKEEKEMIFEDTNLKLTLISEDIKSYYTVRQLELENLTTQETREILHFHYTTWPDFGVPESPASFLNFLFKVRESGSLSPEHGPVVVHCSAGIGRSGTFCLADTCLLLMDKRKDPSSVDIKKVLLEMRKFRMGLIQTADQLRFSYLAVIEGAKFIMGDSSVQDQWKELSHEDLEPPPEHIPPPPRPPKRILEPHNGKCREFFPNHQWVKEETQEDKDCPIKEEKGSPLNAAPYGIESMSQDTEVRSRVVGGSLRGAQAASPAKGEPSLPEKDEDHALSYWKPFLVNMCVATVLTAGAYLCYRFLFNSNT
# Method in brief: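 Enzyme (e.g. PTPN2 0.025 ng/ul) mixed about 2 min with compound at 10 serial concentrations in 50 mM HEPES pH 7.5, 150 mM NaCl, 0.5 mM EDTA, 1 mM DTT, 0.001% Tween-20 at room temperature. DiFMUP added at each enzyme's Km (about 45 μM for PTPN2). DiFMU fluorescence (ex 360/em 450 nm) followed 15-30 min; IC50 from 4-parameter fit of rates.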
smiles,measurement,setting,value
"CC1CC(c2ccc(O)c(N3CC(=O)NS3(=O)=O)c2F)CN1 (stereo not shown) [Compound 407, 5-(2-fluoro-6-hydroxy-3-(5-methylpyrrolidin-3-yl)phenyl)-1,2,5-thiadiazolidin-3-one 1,1-dioxide]",IC50,[1],≤ 1 µM
same,IC50,[2],≤ 1 µM
"O=C1CN(c2c(O)ccc(-c3cnn(C4CCC(O)CC4)c3)c2F)S(=O)(=O)N1 (stereo not shown) [Compound 408, 5-(2-fluoro-6-hydroxy-3-(1-(4-hydroxycyclohexyl)-1H-pyrazol-4-yl)phenyl)-1,2,5-thiadiazolidin-3-one 1,1-dioxide]",IC50,[1],≤ 1 µM
same,IC50,[2],≤ 1 µM
"O=C1CN(c2c(O)ccc(-c3cc(C4CC4)n(CC4CC4)n3)c2F)S(=O)(=O)N1 [Compound 409, 5-(3-(5-cyclopropyl-1-(cyclopropylmethyl)-1H-pyrazol-3-yl)-2-fluoro-6-hydroxyphenyl)-1,2,5-thiadiazolidin-3-one 1,1-dioxide]",IC50,[1],≤ 1 µM
same,IC50,[2],≤ 1 µM
"O=C1CN(c2c(O)ccc(-c3cnn(C(F)(F)C(F)F)c3)c2F)S(=O)(=O)N1 [Compound 410, 5-(2-fluoro-6-hydroxy-3-(1-(1,1,2,2-tetrafluoroethyl)-1H-pyrazol-4-yl)phenyl)-1,2,5-thiadiazolidin-3-one 1,1-dioxide]",IC50,[1],≤ 1 µM
same,IC50,[2],≤ 1 µM
"O=C1CN(c2c(O)ccc(-c3cnn(C4CC5CCC(C4)N5C(=O)C4CC4)c3)c2F)S(=O)(=O)N1 (stereo not shown) [Compound 411, 5-(3-(1-(8-(cyclopropanecarbonyl)-8-azabicyclo[3.2.1]octan-3-yl)-1H-pyrazol-4-yl)-2-fluoro-6-hydroxyphenyl)-1,2,5-thiadiazolidin-3-one 1,1-dioxide]",IC50,[1],≤ 1 µM
same,IC50,[2],≤ 1 µM
"O=C1CN(c2c(O)ccc(-c3cn(C4CCS(=O)(=O)CC4)cn3)c2F)S(=O)(=O)N1 [Compound 412, 5-(3-(1-(1,1-dioxidotetrahydro-2H-thiopyran-4-yl)-1H-imidazol-4-yl)-2-fluoro-6-hydroxyphenyl)-1,2,5-thiadiazolidin-3-one 1,1-dioxide]",IC50,[1],≤ 1 µM
same,IC50,[2],≤ 1 µM
"O=C1CN(c2c(O)ccc(-c3cnn(C4CC5(CC5)C4)c3)c2F)S(=O)(=O)N1 [Compound 414, 5-(2-fluoro-6-hydroxy-3-(1-(spiro[2.3]hexan-5-yl)-1H-pyrazol-4-yl)phenyl)-1,2,5-thiadiazolidin-3-one 1,1-dioxide]",IC50,[1],≤ 1 µM
same,IC50,[2],≤ 1 µM
"O=C1CN(c2c(O)ccc(-c3cc(CCC(F)(F)F)n[nH]3)c2F)S(=O)(=O)N1 [Compound 415, 5-(2-fluoro-6-hydroxy-3-(3-(3,3,3-trifluoropropyl)-1H-pyrazol-5-yl)phenyl)-1,2,5-thiadiazolidin-3-one 1,1-dioxide]",IC50,[1],≤ 1 µM
same,IC50,[2],≤ 1 µM
"O=C1CN(c2c(O)ccc(-c3cc(N4CCC4)n[nH]3)c2F)S(=O)(=O)N1 [Compound 417, 5-(3-(3-(azetidin-1-yl)-1H-pyrazol-5-yl)-2-fluoro-6-hydroxyphenyl)-1,2,5-thiadiazolidin-3-one 1,1-dioxide]",IC50,[1],≤ 1 µM
same,IC50,[2],≤ 1 µM
"Cc1ccccc1-n1cnc(-c2ccc(O)c(N3CC(=O)NS3(=O)=O)c2F)c1 [Compound 418, 5-(2-fluoro-6-hydroxy-3-(1-(o-tolyl)-1H-imidazol-4-yl)phenyl)-1,2,5-thiadiazolidin-3-one 1,1-dioxide]",IC50,[1],≤ 1 µM
same,IC50,[2],≤ 1 µM
"O=C1CC(c2c(O)ccc(-c3cn(CC4CCCCC4)cn3)c2F)S(=O)(=O)N1 (stereo not shown) [Compound 419, 5-(3-(1-(cyclohexylmethyl)-1H-imidazol-4-yl)-2-fluoro-6-hydroxyphenyl)isothiazolidin-3-one 1,1-dioxide]",IC50,[1],> 1 µM
same,IC50,[2],> 1 µM
"O=C1CN(c2c(O)ccc(-c3cc(C4CCOCC4)n[nH]3)c2F)S(=O)(=O)N1 [Compound 420, 5-(2-fluoro-6-hydroxy-3-(3-(tetrahydro-2H-pyran-4-yl)-1H-pyrazol-5-yl)phenyl)-1,2,5-thiadiazolidin-3-one 1,1-dioxide]",IC50,[1],≤ 1 µM
same,IC50,[2],≤ 1 µM
"O=C1CN(c2c(O)ccc(-c3cc(C4CC4)n[nH]3)c2F)S(=O)(=O)N1 [Compound 421, 5-(3-(3-cyclopropyl-1H-pyrazol-5-yl)-2-fluoro-6-hydroxyphenyl)-1,2,5-thiadiazolidin-3-one 1,1-dioxide]",IC50,[1],≤ 1 µM
same,IC50,[2],≤ 1 µM
"O=C1CN(c2c(O)ccc(-c3cnn(CC4CC5CCC(C4)O5)c3)c2F)S(=O)(=O)N1 (stereo not shown) [Compound 422, 5-(3-(1-((8-oxabicyclo[3.2.1]octan-3-yl)methyl)-1H-pyrazol-4-yl)-2-fluoro-6-hydroxyphenyl)-1,2,5-thiadiazolidin-3-one 1,1-dioxide]",IC50,[1],≤ 1 µM
same,IC50,[2],≤ 1 µM
"O=C1CN(c2c(O)ccc(-c3cn(C4CCC(Br)CC4)cn3)c2F)S(=O)(=O)N1 (stereo not shown) [Compound 423, 5-(3-(1-(4-bromocyclohexyl)-1H-imidazol-4-yl)-2-fluoro-6-hydroxyphenyl)-1,2,5-thiadiazolidin-3-one 1,1-dioxide]",IC50,[1],≤ 1 µM
same,IC50,[2],≤ 1 µM
"O=C1CN(c2c(O)ccc(-c3cnn(C4CC4(F)F)c3)c2F)S(=O)(=O)N1 (stereo not shown) [Compound 424, 5-(3-(1-(2,2-difluorocyclopropyl)-1H-pyrazol-4-yl)-2-fluoro-6-hydroxyphenyl)-1,2,5-thiadiazolidin-3-one 1,1-dioxide]",IC50,[1],≤ 1 µM
same,IC50,[2],≤ 1 µM
"Cc1nsc(-c2ccc(O)c(N3CC(=O)NS3(=O)=O)c2F)n1 [Compound 425, 5-(2-fluoro-6-hydroxy-3-(3-methyl-1,2,4-thiadiazol-5-yl)phenyl)-1,2,5-thiadiazolidin-3-one 1,1-dioxide]",IC50,[1],≤ 1 µM
same,IC50,[2],≤ 1 µM
"CO[C@H]1CC[C@H](n2cc(-c3ccc(O)c(N4CC(=O)NS4(=O)=O)c3F)cn2)CC1 [Compound 426, 5-(2-fluoro-6-hydroxy-3-(1-((1r,4r)-4-methoxycyclohexyl)-1H-pyrazol-4-yl)phenyl)-1,2,5-thiadiazolidin-3-one 1,1-dioxide]",IC50,[1],≤ 1 µM
same,IC50,[2],≤ 1 µM
"N#Cc1ccc(-n2cnc(-c3ccc(O)c(N4CC(=O)NS4(=O)=O)c3F)c2)cc1 [Compound 427, 4-(4-(3-(1,1-dioxido-4-oxo-1,2,5-thiadiazolidin-2-yl)-2-fluoro-4-hydroxyphenyl)-1H-imidazol-1-yl)benzonitrile]",IC50,[1],≤ 1 µM
same,IC50,[2],≤ 1 µM
"COc1cc(-c2ccc(O)c(N3CC(=O)NS3(=O)=O)c2F)[nH]n1 [Compound 428, 5-(2-fluoro-6-hydroxy-3-(3-methoxy-1H-pyrazol-5-yl)phenyl)-1,2,5-thiadiazolidin-3-one 1,1-dioxide]",IC50,[1],≤ 1 µM
same,IC50,[2],≤ 1 µM
"O=C1CN(c2c(O)ccc(-c3cc(C4CC4)n(C4CC4)n3)c2F)S(=O)(=O)N1 [Compound 429, 5-(3-(1,5-dicyclopropyl-1H-pyrazol-3-yl)-2-fluoro-6-hydroxyphenyl)-1,2,5-thiadiazolidin-3-one 1,1-dioxide]",IC50,[1],≤ 1 µM
same,IC50,[2],≤ 1 µM
"CN(C)C1(Cn2cc(-c3ccc(O)c(N4CC(=O)NS4(=O)=O)c3F)cn2)CCC1 [Compound 430, 5-(3-(1-((1-(dimethylamino)cyclobutyl)methyl)-1H-pyrazol-4-yl)-2-fluoro-6-hydroxyphenyl)-1,2,5-thiadiazolidin-3-one 1,1-dioxide]",IC50,[1],≤ 1 µM
same,IC50,[2],≤ 1 µM
"O=C1CN(c2c(O)ccc(-c3cc(N4CCC5(COC5)C4)n[nH]3)c2F)S(=O)(=O)N1 [Compound 431, 5-(3-(3-(2-oxa-6-azaspiro[3.4]octan-6-yl)-1H-pyrazol-5-yl)-2-fluoro-6-hydroxyphenyl)-1,2,5-thiadiazolidin-3-one 1,1-dioxide]",IC50,[1],≤ 1 µM
same,IC50,[2],≤ 1 µM
"Cn1nc(-c2ccc(O)c(N3CC(=O)NS3(=O)=O)c2F)cc1CCC#N [Compound 432, 3-(3-(3-(1,1-dioxido-4-oxo-1,2,5-thiadiazolidin-2-yl)-2-fluoro-4-hydroxyphenyl)-1-methyl-1H-pyrazol-5-yl)propanenitrile]",IC50,[1],≤ 1 µM
same,IC50,[2],≤ 1 µM
"N#Cc1cc(F)cc(-n2cnc(-c3ccc(O)c(N4CC(=O)NS4(=O)=O)c3F)c2)c1 [Compound 433, 3-(4-(3-(1,1-dioxido-4-oxo-1,2,5-thiadiazolidin-2-yl)-2-fluoro-4-hydroxyphenyl)-1H-imidazol-1-yl)-5-fluorobenzonitrile]",IC50,[1],≤ 1 µM
same,IC50,[2],≤ 1 µM
"O=C1CN(c2c(O)ccc(-c3cc(C#Cc4cccnc4)n[nH]3)c2F)S(=O)(=O)N1 [Compound 434, 5-(2-fluoro-6-hydroxy-3-(3-(pyridin-3-ylethynyl)-1H-pyrazol-5-yl)phenyl)-1,2,5-thiadiazolidin-3-one 1,1-dioxide]",IC50,[1],≤ 1 µM
same,IC50,[2],≤ 1 µM
